According to patent US20220152224A1, “METHODS AND MATERIALS FOR TREATING CANCER” (priority 2019, published 2022):

Test system: GSK3β
Test: Inhibition of GSK3β during Neurog2-induced neuronal conversion of U251 cells
Type: cell-based, human

Row | Structure (SMILES) | neuronal conversion efficiency of Neurog2-infected U251 cells (CHIR99021 5 μM for 20 days) | neuronal conversion efficiency of Neurog2-infected U251 cells (TWS119 10 μM for 20 days)
1 | Cc1c[nH]c(-c2cnc(NCCNc3ccc(C#N)cn3)nc2-c2ccc(Cl)cc2Cl)n1 [CHIR99021] | decreased neuronal conversion efficiency | 
2 | Nc1cccc(-c2cc3c(Oc4cccc(O)c4)ncnc3[nH]2)c1 [TWS119] |  | decreased neuronal conversion efficiency
